From US6599893B2, “Cephalosporin antibiotics and prodrugs thereof” (Essential Therapeutics, Inc., priority 2000, dated 2003)
In brackets after ≈: the same amount, converted by molar mass.

Legend:
[1] = test system: Enterococcus faecalis ATCC 29212; assay: Broth microdilution MIC, E. faecalis ATCC 29212; assay type: cell-based; settings: Enterococcus faecalis ATCC 29212; for MIC: ATCC29212, read-out: MIC E. f. 29212
Protocol: (§1) Compounds were evaluated for antimicrobial activity against a panel of bacterial strains using a broth microdilution assay performed as recommended by the NCCLS (NCCLS (National Committee for Clinical Laboratory Standards). 1993. Methods for dilution antimicrobial susceptibility tests for bacteria that grow aerobically. NCCLS Document M7-A3, 1993. In: NCCLS Antimicrobial Susceptibility Testing, 3rd Ed.)
(§2) The minimum inhibitory concentration (MIC) is defined as the lowest concentration of a compound that prevents the growth of the bacteria.

[2] = test system: Staphylococcus aureus Smith (MSSA); assay: Broth microdilution MIC, S. aureus Smith; assay type: cell-based; settings: Staphylococcus aureus Smith (MSSA); for MIC: read-out: MIC S. a. Smith
Protocol: as §1, §2

[3] = test system: Enterococcus faecium ATCC 35667; assay: Broth microdilution MIC, E. faecium ATCC 35667; assay type: cell-based; settings: Enterococcus faecium ATCC 35667; for MIC: ATCC35667, read-out: MIC E. f. 35667
Protocol: as §1, §2

[4] = test system: Staphylococcus aureus ATCC 29213 (MSSA); assay: Broth microdilution MIC, S. aureus ATCC 29213; assay type: cell-based; settings: Staphylococcus aureus ATCC 29213 (MSSA); for MIC: read-out: MIC S. a. 29213
Protocol: as §1, §2

[5] = test system: Staphylococcus aureus COL (MRSA, non-β-lactamase producing); assay: Broth microdilution MIC, S. aureus COL; assay type: cell-based; settings: Staphylococcus aureus COL (MRSA, non-β-lactamase producing); for MIC: read-out: MIC S. a. COL
Protocol: as §1, §2

[6] = test system: Staphylococcus aureus 76 (MRSA, β-lactamase producing); assay: Broth microdilution MIC, S. aureus 76; assay type: cell-based; settings: Staphylococcus aureus 76 (MRSA, β-lactamase producing); for MIC: read-out: MIC S. a. 76
Protocol: as §1, §2

[7] = Human serum binding by ultrafiltration; assay type: in vitro ADME
Protocol: Binding of several representative compounds of this invention in pooled human serum was determined using ultrafiltration. Compounds were incubated in serum for 10 minutes at 37° C. in a shaking water bath. Serum ultrafiltrate was accomplished by centrifugation (Amicon Centrifree) for 20 minutes at 25° C. Compound content in the ultrafiltrate was quantified by HPLC. An ultrafilrate obtained by following the same procedure with no added compound was used as a standard.

C=CCO/N=C(\C(=O)N[C@@H]1C(=O)N2C(C(=O)O)=C(Sc3ccnn3-c3ccccc3)CS[C@H]12)c1csc(N)n1 [Compound 20]
MIC [1]: 32 µg/mL (≈ 54.8 µM) | MIC [2]: 0.5 µg/mL (≈ 0.857 µM) | MIC [3]: 32 µg/mL (≈ 54.8 µM) | MIC [4]: 1 µg/mL (≈ 1.71 µM) | MIC [5]: 8 µg/mL (≈ 13.7 µM) | MIC [6]: 16 µg/mL (≈ 27.4 µM)

NC(=O)NCCSCc1cnccc1SC1=C(C(=O)O)N2C(=O)[C@@H](NC(=O)/C(=N\O)c3nc(N)sc3Cl)[C@H]2SC1 [Compound 30]
MIC E. f. 29212 [1]: 0.125 µg/mL (≈ 0.194 µM) | MIC S. a. Smith [2]: 0.5 µg/mL (≈ 0.775 µM) | MIC S. a. 29213 [4]: 0.5 µg/mL (≈ 0.775 µM) | HSB, human serum binding [7]: 96% | MIC S. a. COL [5]: 4 µg/mL (≈ 6.2 µM) | MIC S. a. 76 [6]: 4 µg/mL (≈ 6.2 µM)

Cn1ccnc1SC1=C(C(=O)O)N2C(=O)[C@@H](NC(=O)/C(=N\O)c3nc(N)sc3Cl)[C@H]2SC1 [Compound 31]
MIC E. f. 29212 [1]: 1 µg/mL (≈ 1.94 µM) | MIC S. a. Smith [2]: 0.125 µg/mL (≈ 0.242 µM) | MIC E. f. 35667 [3]: 16 µg/mL (≈ 31 µM) | MIC S. a. 29213 [4]: 0.5 µg/mL (≈ 0.969 µM) | MIC S. a. COL [5]: 16 µg/mL (≈ 31 µM) | MIC S. a. 76 [6]: 32 µg/mL (≈ 62 µM)

Cc1nnc(SC2=C(C(=O)O)N3C(=O)[C@@H](NC(=O)/C(=N\O)c4nc(N)sc4Cl)[C@H]3SC2)s1 [Compound 33]
MIC E. f. 29212 [1]: 1 µg/mL (≈ 1.87 µM) | MIC S. a. Smith [2]: 0.5 µg/mL (≈ 0.936 µM) | MIC E. f. 35667 [3]: 4 µg/mL (≈ 7.49 µM) | MIC S. a. 29213 [4]: 1 µg/mL (≈ 1.87 µM) | MIC S. a. COL [5]: 4 µg/mL (≈ 7.49 µM) | MIC S. a. 76 [6]: 8 µg/mL (≈ 15 µM)

CSc1nnc(SC2=C(C(=O)O)N3C(=O)[C@@H](NC(=O)C(=NO)c4nc(N)sc4Cl)C3SC2)s1 (stereo partly drawn) [Compound 44, (7R)-7-[2-(2-Amino-5-chlorothiazol-4-yl)-2-hydroxyiminoacetylamino]-3-(5-methylsulfanyl-[1,3,4]thiadiazol-2-ylsulfanyl)-8-oxo-5-thia-1-aza-bicyclo[4.2.0]oct-2-ene-2-carboxylic acid]
MIC [1]: 0.25 µg/mL (≈ 0.442 µM) | MIC [3]: 1 µg/mL (≈ 1.77 µM) | MIC [4]: 0.25 µg/mL (≈ 0.442 µM) | MIC [5]: 1 µg/mL (≈ 1.77 µM) | MIC [6]: 1 µg/mL (≈ 1.77 µM)

Cc1noc(SC2=C(C(=O)O)N3C(=O)[C@@H](NC(=O)C(=NO)c4nc(N)sc4Cl)C3SC2)n1 (stereo partly drawn) [Compound 45, (7R)-7-[2-(2-Amino-5-chlorothiazol-4-yl)-2-hydroxyiminoacetylamino]-3-(3-methyl-[1,2,4]oxadiazol-5-ylsulfanyl)-8-oxo-5-thia-1-aza-bicyclo[4.2.0]oct-2-ene-2-carboxylic acid]
MIC [1]: 0.125 µg/mL (≈ 0.241 µM) | MIC [2]: 1 µg/mL (≈ 1.93 µM) | MIC [3]: 0.5 µg/mL (≈ 0.965 µM) | MIC [4]: 0.5 µg/mL (≈ 0.965 µM) | MIC [5]: 4 µg/mL (≈ 7.72 µM) | MIC [6]: 4 µg/mL (≈ 7.72 µM)

Nc1nsc(SC2=C(C(=O)O)N3C(=O)[C@@H](NC(=O)C(=NO)c4nc(N)sc4Cl)C3SC2)n1 (stereo partly drawn) [Compound 47, (7R)-7-[2-(2-Amino-5-chlorothiazol-4-yl)-2-hydroxyiminoacetylamino]-3-(3-amino-[1,2,4]thiadiazol-5-ylsulfanyl)-8-oxo-5-thia-1-aza-bicyclo[4.2.0]oct-2-ene-2-carboxylic acid]
MIC [1]: 0.125 µg/mL (≈ 0.234 µM) | MIC [2]: 0.25 µg/mL (≈ 0.467 µM) | MIC [3]: 0.5 µg/mL (≈ 0.935 µM) | MIC [4]: 0.125 µg/mL (≈ 0.234 µM) | MIC [5]: 0.5 µg/mL (≈ 0.935 µM) | MIC [6]: 1 µg/mL (≈ 1.87 µM)

Nc1nc(C(=NO)C(=O)N[C@@H]2C(=O)N3C(C(=O)O)=C(Sc4nnco4)CSC23)c(Cl)s1 (stereo partly drawn) [Compound 48, (7R)-7-[2-(2-Amino-5-chlorothiazol-4-yl)-2-hydroxyiminoacetylamino]-3-([1,3,4]oxadiazol-2-ylsulfanyl)-8-oxo-5-thia-1-aza-bicyclo[4.2.0]oct-2-ene-2-carboxylic acid]
MIC [1]: 0.25 µg/mL (≈ 0.496 µM) | MIC [3]: 1 µg/mL (≈ 1.98 µM) | MIC [4]: 0.25 µg/mL (≈ 0.496 µM) | MIC [5]: 2 µg/mL (≈ 3.97 µM) | MIC [6]: 2 µg/mL (≈ 3.97 µM)

Nc1nc(C(=NO)C(=O)N[C@@H]2C(=O)N3C(C(=O)O)=C(Sc4nnc(N)s4)CSC23)cs1 (stereo partly drawn) [Compound 49, 3-(5-Amino-[1,3,4]thiadiazol-2-ylsulfanyl)-(7R)-7-[2-(2-aminothiazol-4-yl)-2-hydroxyiminoacetylamino]-8-oxo-5-thia-1-aza-bicyclo[4.2.0]oct-2-ene-2-carboxylic acid]
MIC [1]: 0.5 µg/mL (≈ 0.999 µM) | MIC [3]: 1 µg/mL (≈ 2 µM) | MIC [4]: 0.25 µg/mL (≈ 0.499 µM) | MIC [5]: 4 µg/mL (≈ 7.99 µM) | MIC [6]: 8 µg/mL (≈ 16 µM)

Nc1nc(C(=NO)C(=O)N[C@@H]2C(=O)N3C(C(=O)O)=C(Sc4nncs4)CSC23)ns1 (stereo partly drawn) [Compound 50, (7R)-7-[2-(5-Amino-[1,2,4]thiadiazol-3-yl)-2-hydroxyiminoacetylamino]-8-oxo-3-([1,3,4]thiadiazol-2-ylsulfanyl)-5-thia-1-aza-bicyclo [4.2.0]oct-2-ene-2-carboxylic acid]
MIC [1]: 1 µg/mL (≈ 2.06 µM) | MIC [3]: 2 µg/mL (≈ 4.11 µM) | MIC [4]: 0.25 µg/mL (≈ 0.514 µM) | MIC [5]: 4 µg/mL (≈ 8.22 µM) | MIC [6]: 8 µg/mL (≈ 16.4 µM)

Nc1nc(CC(=O)N[C@@H]2C(=O)N3C(C(=O)O)=C(Sc4nnc(N)s4)CSC23)cs1 (stereo partly drawn) [Compound 51, 3-(5-Amino-[1,3,4]thiadiazol-2-ylsulfanyl)-(7R)-7-[2-(2-amino-thiazol-4-yl)-acetylamino]-8-oxo-5-thia-1-aza-bicyclo[4.2.0]oct-2-ene-2-carboxylic acid]
MIC [1]: 2 µg/mL (≈ 4.24 µM) | MIC [2]: 0.06 µg/mL (≈ 0.127 µM) | MIC [3]: 4 µg/mL (≈ 8.48 µM) | MIC [4]: 0.125 µg/mL (≈ 0.265 µM) | MIC [5]: 4 µg/mL (≈ 8.48 µM) | MIC [6]: 16 µg/mL (≈ 33.9 µM)

Nc1nc(C(=NO)C(=O)N[C@@H]2C(=O)N3C(C(=O)O)=C(Sc4nc(Cl)ns4)CSC23)c(Cl)s1 (stereo partly drawn) [Compound 52, (7R)-7-[2-(2-Amino-5-chlorothiazol-4-yl)-2-hydroxyiminoacetylamino]-3-(3-chloro-[1,2,4]thiadiazol-5-ylsulfanyl)-8-oxo-5-thia-1-aza-bicyclo[4.2.0]oct-2-ene-2-carboxylic acid]
MIC [1]: 0.25 µg/mL (≈ 0.451 µM) | MIC [3]: 1 µg/mL (≈ 1.8 µM) | MIC [4]: 0.25 µg/mL (≈ 0.451 µM) | MIC [5]: 1 µg/mL (≈ 1.8 µM) | MIC [6]: 2 µg/mL (≈ 3.61 µM)
